# Ends that are not written are not given here.
# Tests used:
# RII = assay: ELISA and modified ELISA, AKAP 79 binding to immobilized RII
# Description: (§1) Specifically, in the first method, recombinant CaN A, expressed as described above, was added to wells of Immulon plates (Dynatech) in a 35 mM sodium bicarbonate/15 mM sodium carbonate buffer, pH 9.6. Proteins bound to the surface of the wells by plastic/protein interaction. As a positive control, RII, and a negative control, bovine serum albumin (BSA) were separately and similarly captured in individual wells and assayed in this method. Nonspecific sites in the wells were blocked with a buffer containing 2.5% milk in 50 mM sodium citrate and 145 mM sodium chloride. Full length TRX-AKAP 79 was added in a final volume of 100 μl and after up to 2 hours incubation, free and non-specific proteins were removed with several washes with PBS/0.5% Tween 20. A mouse anti-AKAP 79 monoclonal antibody, generated against recombinant AKAP 79, was added to each well, followed by addition of a horse radish peroxidase (HRP)-conjugated goat anti-mouse antibody. HRP substrate tetramethylbenzidine (TMB) was added and absorbance at 450 nm determined using a Dynatech 96 well plate reader.
# In the modified ELISA, standard ELISA techniques were employed except that HRP-conjugated streptavidin was used to detect bound biotinylated AKAP 79 instead of an anti-AKAP 79 monoclonal antibody. Briefly, after incubation of immobilized CaN A with biotinylated AKAP 79, HRP-conjugated streptavidin was added for 30 minutes. Unbound protein was removed with multiple washes of PBS/0.05% Tween 20. Bound streptavidin was detected with HRP substrate TMB and absorbance measured at 450 nm using a Dynatech 96 well plate reader. As in the ELISA described above, RII was immobilized and assayed as a positive control, and BSA as a negative control.
# CaN A = biological target: T1, CaN A (Rattus norvegicus, UniProt P63329); assay: ELISA and modified ELISA, AKAP 79 binding to immobilized CaN A
# T1 construct: the deletion mutant form of CaN A is used in the assays described above in place of full length CaN A; made in house; host or cells: Sf9 cells (baculovirus); construct from Vollum Institute
# Description: Two different capture methods were used. In one method, CaN A was first captured on plates by passive coating, AKAP 79 or biotinylated AKAP 79 was added, and complex formation detected by either ELISA or by streptavidin-HRP. In another method, rabbit anti-mouse antibodies were first captured on plates, mouse anti-TRX antibodies added and captured, and TRX-AKAP 79 added and captured. This method was similar to the capture method used for AKAP 79/^3 H-RII SPA. Biotinylated CaN A was then added, and the complex detected by streptavidin-HRP.
# as §1
# In the modified ELISA, standard ELISA techniques were employed except that HRP-conjugated streptavidin was used to detect bound biotinylated AKAP 79 instead of an anti-AKAP 79 monoclonal antibody. Briefly, after incubation of immobilized CaN A with biotinylated AKAP 79, HRP-conjugated streptavidin was added for 30 minutes. […] Bound streptavidin was detected with HRP substrate TMB and absorbance measured at 450 nm using a Dynatech 96 well plate reader. […]
# CaN420 = biological target: T2, CaN420 (Rattus norvegicus, UniProt P63329); assay: CaN420 phosphatase activity toward 32P RII peptide substrate; format: biochemical; conditions: calmodulin omitted
# T2 construct: a truncated, Ca^2+ /calmodulin independent constitutively active form of CaN; made in house; host or cells: Sf9 cells (baculovirus)
# Description: (§2) To determine whether AKAP 79 peptide binding inhibits CaN activity, CaN phosphatase activity was assayed in the presence of recombinant AKAP 79. Briefly, recombinant AKAP 79 was expressed in E. coli as described in Carr et al., J. Biol. Chem., 267:16816-16823 (1992), incorporated herein by reference. CaN and the constitutively active truncation mutant CaN420 (a truncated, Ca^2+ /calmodulin independent constitutively active form of CaN (Perrino et al., J. Biol. Chem., in press)) were expressed in Sf9 cells and purified on calmodulin-Sepharose as described in Perrino et al., J. Biol Chem., 267:15965-15969 (1992), incorporated herein by reference. Phosphatase activity toward ^32 P RII peptide substrate was measured as described in Perrino et al., supra. CaN (30 nM), calmodulin (100 nM) and ^32 P RII peptide (22 μM) were incubated with AKAP 79 protein and AKAP 79 peptide (SEQ ID NO:1-amino acids 81-102) over the range of concentrations indicated in FIG. 1B. Calmodulin was omitted from CaN420 assays. ^32 P released from the substrate was measured in triplicate samples in three separate experiments by scintillation counting. The inhibition constant (Ki) of recombinant AKAP 79 for CaN was determined by linear regression analysis of data. Ki values for AKAP 79 peptide were estimated by determining the IC50 using a fixed substrate concentration at Km (42 μM).
# CaN = biological target: T3, CaN (Rattus norvegicus, UniProt P63329); assay: CaN phosphatase activity toward 32P RII peptide substrate; format: biochemical; conditions: Ca2+/calmodulin dependent CaN 30 nM, 32P RII peptide substrate
# T3 construct: made in house; host or cells: Sf9 cells (baculovirus)
# Description: as §2
# [1] = tested on: IL-2 transcription in Jurkat T cell line (NFATZ); assay: NFATZ Jurkat IL-2 promoter lacZ β-gal FACS assay; format: cell-based
# Description: IL- 2 transcription was studied following activation with PMA and ionomycin. These two agents are known respectively to potentiate protein kinase C and calcium second messenger responses (including activation of CaN). Protein kinase C activates the Ras-Raf-1-Mek-MAP Kinase pathway that participates in induction of the nuclear component of NFAT. The increased calcium concentration activates calcineurin which, in turn, activates the cytoplasmic component of NFAT and allows translocation to the nucleus.
# Each of the peptides was myristilated as described in Eichholtz et al., J. Biol. Chem., 268:1982-1986 (1993).
# Incubation with forskolin/IBMX elevates intracellular cAMP concentrations (FIG. 4), thereby activating PKA. Finally, phorbol 12-myristate 13-acetate (PMA) (10 ng/ml) and ionomycin (2 μM) were added and incubations continued for 4 hr. Controls were incubated with PMA/ionomycin alone or forskolin/IBMX and PMA/ionomycin under conditions as described above. During the last 20 min of the PMA/ionomycin incubation, chloroquine (300 μM) was added to inhibit endogenous lysosomal β-gal activity. The cells were spun out and resuspended in 50 μl of culture medium to which 50 μl of fluorescein di-β-D-galactopyranoside (FDG) was added (0.1 mM final concentration; Molecular Probes). […] The lacZ β-gal activity was measured by flow cytometry configured for fluorescein analysis.
# AKAP 79/RII binding = assay: Scintillation proximity assay of TRX-AKAP 79/3H-RII binding; conditions: read-out: IC50 of inhibition of AKAP 79/RII binding
# Description: Initially, a thioredoxin TRX-AKAP 79 fusion protein expression plasmid was constructed. See, generally, LaVallie, et al., BIO/TECHNOLOGY 11:187-193 (1993). Briefly, a XhaI/HindIII thioredoxin fragment was subcloned into pUC 19 containing a lac Z gene and a tacZ promoter. The resulting plasmid was designated TRX F/S pUC19. In order to insert an AKAP 79 encoding sequence into TRX F/S pUC19, an NcoI site was created with an oligonucleotide (SEQ ID NO:32) having terminal SpeI and HindIII sequences. Following SpeI/HindIII digestion, the oligonucleotide was inserted into the vector and an NcoI/XhoI fragment encoding AKAP 79 was ligated in frame with the thioredoxin gene. The fusion protein was expressed in E. coli and immobilized on 96-well ScintiStrip plates (Wallac, Turbu, Finland) which contained a scintillator embedded in the solid support. […] When ^3 H-RII bound to AKAP 79, the label was brought sufficiently close to the support-embedded scintillator, resulting in emission detected in a MicroBeta scintillation counter.
# The scintillation proximity assay (SPA) screening protocol described in Example 8 was employed to determine the ability of various chemicals to inhibit binding between AKAP 79 and ^3 H-RII. […] Percent binding was determined by the measuring the amount of radioactivity in each well compared to the amount of radioactivity in wells wherein only AKAP 79 and ^3 H-RII were introduced.
# PKC/AKAP 79 interaction = assay: PKC overlay assay; format: binding, rabbit
# Description: In order to determine if the 75 kDa protein identified may be the bovine homolog of AKAP 79, the PKC overlay assay was used to probe AKAP 79 and related fragments. Briefly, proteins were separated by SDS-polyacrylamide electrophoresis (SDS-PAGE) and blotted to nitrocellulose following standard protocols. Samples were blocked in Blotto [1 mg/ml bovine serum albumin (BSA), 5% dry milk in Tris-buffered saline (TBS)] and incubated for one hour at room temperature in assay buffer [TBS containing 1 mg/ml BSA, 1.2 mM calcium, 1 mM EGTA, 20 μg/ml phosphatidylserine (PS), 2 μg/ml leupeptin, 2 μg/ml pepstatin and 3 μg/ml of partially purified rabbit brain PKC]. Bound PKC was detected with monoclonal antibody M7, which recognizes both PKCα and β, following standard chemiluminescent detection methods.
# PKC = PKC activity assay with EGF receptor peptide substrate; format: biochemical
# Description: In order to asses the ability of these peptides to modulate PKC activity, the following assay was performed in the presence and absence of AKAP 79 peptide fragments. PKC [50 nM dissolved in 50 mM tris-HCl (pH 7.4), 5 mM MgCl2 1.2 mM CaCl2, 1 mM DTT, 1 mM EGTA and 100 μg/ml PS] was incubated with EGF receptor peptide substrate (5 μM) at 30° C. for five minutes. Phosphorylation reaction was initiated by addition of 100 μM ^32 P-ATP (500 cpm/pmol) and the reaction allowed to proceed for ten minutes at 30° C. Aliquots of reaction mixture were removed and spotted into P81 filter paper and the reaction terminated by washing the filter paper with excess 75 mM phosphoric acid (three washes for three minutes each). After a final wash in ethanol, the p81 filters were dried and radioactivity was measured by liquid scintillation counting.
substance,measurement,setting,value
"AKAP 79/M108: biotinylated AKAP 79 truncation, first 108 amino terminal residues deleted",recognition of immobilized RII,RII,specifically recognized
"AKAP 79/Met159: biotinylated AKAP 79 truncation, first 159 amino terminal amino acids deleted",binding to immobilized CaN A,CaN A,no specific binding
same,recognition of immobilized RII,RII,specifically recognized
"AKAP 79/Met247: biotinylated AKAP 79 truncation, first 247 amino terminal amino acids deleted",binding to immobilized CaN A,CaN A,no specific binding
same,recognition of immobilized RII,RII,specifically recognized
AKAP 79: recombinant anchoring protein AKAP 79 expressed in E. coli,inhibition of CaN420 phosphatase activity,CaN420,non-competitive manner
same,inhibition of full-length CaN phosphatase activity,CaN,non-competitive manner
same,binding to immobilized CaN A,CaN A,bound
"Asp-Leu-Ile-Glu-Glu-Ala-Ala-Ser-Arg-Ile-Val-Asp-Ala-Val-Ile-Glu-Gln-Val-Lys-Ala-Ala-Gly-Ala-Tyr (DLIEEAASRIVDAVIEQVKAAGAY; also: myristoylated, place not given here) [myristilated Ht31 peptide, amino acids 493-515 of the full length Ht31 protein, myristilated]",reversal of forskolin/IBMX blockade of PMA/ionomycin induced β-gal activity,[1]; 100 μM myristilated peptide,completely reversed
"Ht31 peptide: Ht31 peptide (SEQ ID NO:4), blocks anchoring protein binding to RII (DLIEEAAVSRIVDAVIEEVKAAGA) [reference compound]",inhibition of full-length CaN phosphatase activity,CaN,not an inhibitor
same,IC50,AKAP 79/RII binding,0.05 µM
"myristilated AKAP 75 peptide: myristilated peptide of amino acids 81-108 of AKAP 75 (SEQ ID NO:8) (SIKRLVTRRKRSESSKQQKPFKAKLQSE; also: myristoylated, place not given here)",reduction of PMA/ionomycin induced β-gal activity,[1]; 10 μM in the medium,40-50%
"peptide containing residues 31-52: synthetic peptide of residues 31-52 of AKAP 79 (KASMLCFKRRKKAAKALKPKAG; UniProt P24588 31-52, looked up, fragment)",block of PKC/AKAP 79 interaction,PKC/AKAP 79 interaction,blocked
same,effect of incubation with CaM on inhibition of PKC,"PKC; CaM 15 μM, excess Ca2+",prevented inhibition
same,type of inhibition of PKC activity,PKC; EGF receptor peptide as substrate,mixed inhibition
same,IC50,PKC; read-out: IC50 of inhibition of PKC activity,2 µM
"unlabeled RII: unlabeled RII regulatory subunit of PKA, reference inhibitor",IC50,AKAP 79/RII binding,0.001 µM

# — patent publication US6107104A, “Modulators of anchoring protein function” (ICOS Corporation, priority 1996, dated 2000)
